Experimental data: PubChem BioAssay AID844 (SRMLSC, 2007)
Calls of active or inactive are those of the source. No rule for the calls is given here.

System: MRP1 cells, doxorubicin viability shift, 10 uM compound
Assay: doxorubicin EC50 increase in MRP-1 cells, dose response, cell-based, doxorubicin EC50 shift (AID 844)
Settings: for EC50: measured here: doxorubicin EC50 with compound

Compound	fold increase in Dox EC50	EC50
O=C(O)c1ccc(N/N=C/c2ccc(F)c(F)c2)cc1	1.31 (inactive)	7.07 µM
Cc1ccc(OCc2nnc(SC3CCc4ccccc4C3=O)n2C)cc1 (stereo not given)	1.22 (inactive)	6.56 µM
COc1ccc(OC)c(-c2cc(C(=O)Nc3c(C)nn(Cc4ccccc4Cl)c3C)no2)c1	0.55 (inactive)	2.99 µM
CCn1c(C)cc(/C=C2\NC(=O)N(Cc3ccc(Cl)cc3)C2=O)c1C	1.14 (inactive)	6.15 µM
COc1ccc(CN=C2NC(=O)CC(C(=O)Nc3ccccc3C)S2)cc1 (stereo not given)	1.16 (inactive)	6.24 µM
Cc1nnc(NC(=O)c2ccco2)s1	1.16 (inactive)	6.28 µM
Cc1nc2ccccc2c(=O)n1/N=C/c1c(O)ccc2oc3c(c12)CCCC3	0.28 (inactive)	1.5 µM
O=C(O)CSC1c2ccccc2C(=O)N1Cc1ccccc1 (stereo not given)	0.82 (inactive)	4.42 µM
CC(=O)NN1C(=O)/C(=C\c2ccc(C)cc2)SC1=S	1.47 (inactive)	7.96 µM
CC1CCc2nn(CC(=O)N3CCN(C(=O)c4ccco4)CC3)cc2C1 (stereo not given)	0.66 (inactive)	3.57 µM
Fc1cccc(-c2cc3nc(-c4ccccc4)cc(N4CCC5(CC4)OCCO5)n3n2)c1	0.56 (inactive)	3.04 µM
CC(/C=N\NC(=O)CN1CCN(S(=O)(=O)c2ccc(C)cc2)CC1)=C\c1ccccc1	1.26 (inactive)	6.79 µM
COc1ccc(OC)c(-c2cc(C(=O)Nc3c(C)nn(Cc4ccccc4C)c3C)no2)c1	0.65 (inactive)	3.49 µM
CCNc1ccc(C(=O)OCC(=O)c2cc(C)n(Cc3ccc4c(c3)OCO4)c2C)cc1[N+](=O)[O-]	1.06 (inactive)	5.74 µM
O=C(c1ccc(COc2ccc(Br)cc2)o1)N1N=C(C(F)F)CC1(O)C(F)F (stereo not given)	1.06 (inactive)	5.71 µM
CC(C)Oc1ccc(CSC(=N)N)cc1	0.89 (inactive)	4.81 µM
O=C1Cc2ccccc2C(=O)N1CCc1ccccc1	0.44 (inactive)	2.37 µM
CCNc1sc(C(=O)c2cccs2)c(N)c1-c1nc2ccccc2s1	0.59 (inactive)	3.17 µM
O=C(Cn1c(COc2ccc(Cl)cc2)nc2ccccc21)NCC(F)(F)F	0.75 (inactive)	4.04 µM
Cc1nc(OCc2ccccc2)c2sc3nc4c(cc3c2n1)COC(C)(C)C4	1.3 (inactive)	7.04 µM
CCOC(=O)c1cc(-c2ccccc2)sc1NC(=O)C(C)Sc1nnc(N)s1 (stereo not given)	0.73 (inactive)	3.92 µM
Cc1cccc2cc(CN(Cc3ccco3)S(=O)(=O)c3ccc4c(c3)OCCO4)c(=O)[nH]c12	0.96 (inactive)	5.19 µM
Cc1ccc(NC(=O)CSc2nnc(-c3cccs3)n2Cc2ccco2)cc1	0.78 (inactive)	4.24 µM
CCOC(=O)Cc1csc(NC(=O)c2c(-c3ccccc3)noc2C)n1	0.44 (inactive)	2.4 µM
CC1=C(C(=O)Nc2ccccc2)C(c2ccc(C)o2)N2C(=O)CSC2=N1 (stereo not given)	0.84 (inactive)	4.55 µM

Compound	fold increase in Dox EC50	EC50
O=C1NC(=Nc2ccccc2)SC1Cc1cccc(Cl)c1Cl (stereo not given)	1.21 (inactive)	6.54 µM
Cc1nc(=O)c(-c2ccccc2)c(C)n1-c1ccc(S(N)(=O)=O)cc1	1.53	8.25 µM
COc1cccc(/C=N/NC(=O)C(=O)N2CCCC2)c1O	0.67 (inactive)	3.6 µM
CCOc1ccc(Cn2nnc(C(=O)NCCc3ccccc3)c2N)cc1	1.05 (inactive)	5.65 µM
O=C(Nc1ccc(N2CCCCC2)c(Cl)c1)c1ncn[nH]1	0.78 (inactive)	4.22 µM
COc1cccc(-c2csc(NC(=O)C3CC3)n2)c1	0.84 (inactive)	4.55 µM
O=C(Nc1nc(-c2ccccc2)cs1)c1ccc(Br)o1	1.41 (inactive)	7.64 µM
COc1ccc(CNc2nc3c(c(=O)n(Cc4ccc(Cl)cc4)c(=O)n3C)n2C)cc1	0.83 (inactive)	4.48 µM
O=C(c1ccccc1)C(Sc1ncn[nH]1)c1ccccc1 (stereo not given)	0.68 (inactive)	3.7 µM
N#Cc1nc(COc2cccc(Cl)c2)oc1N1CCCC1	0.93 (inactive)	5.04 µM
O=C(CC1SC(=O)N(Cc2ccccc2)C1=O)Nc1nccs1 (stereo not given)	1.82	9.84 µM
S=C(N/N=C/c1ccc(Cl)cc1)N1CCOCC1	1.22 (inactive)	6.57 µM
CCOc1ccc(OCC)c(-c2c(=O)n(OCc3ccc(C(C)(C)C)cc3)c3ccccc3[n+]2[O-])c1	0.85 (inactive)	4.6 µM
CCOC(=O)c1nnc(-c2ccccc2)nc1Oc1ccccc1Cl	0.99 (inactive)	5.34 µM
Cc1cc2nc(-c3cccc(NC(=O)c4ccc(Br)o4)c3C)oc2cc1C	1.03 (inactive)	5.56 µM
O=C(Nc1ccn(Cc2ccccc2F)n1)c1ccc(COc2ccc(Cl)cc2Cl)o1	0.95 (inactive)	5.15 µM
COc1ccc(C(=O)NCc2ccc3c(c2)OCO3)cc1S(=O)(=O)N(C)Cc1ccccc1	0.75 (inactive)	4.08 µM
COC(=O)c1cnn(-c2cc(Oc3ccccc3)ncn2)c1N	0.76 (inactive)	4.11 µM
Cc1noc(/C=C/N(C)C)c1S(=O)(=O)N1CCCC(C(=O)NCc2ccc(F)cc2)C1 (stereo not given)	1.15 (inactive)	6.2 µM
Brc1ccc(OCc2nnc3n2CCC3)cc1	1.67	9.02 µM
CC(C)c1ccc(CNc2cc(N3CCCC3)ccc2[N+](=O)[O-])cc1	0.81 (inactive)	4.36 µM
CCOC(=O)Cc1csc(NC(=S)NC(=O)C(C)(C)C)n1	1.2 (inactive)	6.45 µM
NC(=O)C1(N2CCCCC2)CCN(C(=O)c2cccn3c(=O)c4cc(Cl)ccc4nc23)CC1	0.7 (inactive)	3.79 µM
CC12CCC(c3nnc(SCc4ccc(Cl)cc4)nc31)C2(C)C (stereo not given)	1.32 (inactive)	7.1 µM
Cc1cc(C(=O)N/N=C/c2cc([N+](=O)[O-])cc(C)c2O)n[nH]1	0.53 (inactive)	2.87 µM

Compound	fold increase in Dox EC50	EC50
COc1ccc(NC(=O)CC2C(=O)N(c3ccc(Cl)cc3)C(=S)N2NC(=O)c2cccc(F)c2)cc1 (stereo not given)	0.67 (inactive)	3.59 µM
Cn1nc(C(F)(F)F)c2cc(NC(=O)OCc3ccc(C(C)(C)C)cc3)sc21	0.74 (inactive)	4.02 µM
O=C(Nc1ccn(Cc2c(F)c(F)cc(F)c2F)n1)c1ccc(COc2ccc(Cl)cc2Cl)o1	1.01 (inactive)	5.45 µM
Cc1cccc(N2CCN(C(=O)Cc3ccc(Br)cc3)CC2)c1C	0.95 (inactive)	5.11 µM
O=C(Cn1c(=O)c2c(ncn2Cc2ccccc2)n(Cc2ccccc2)c1=O)N1CCc2ccccc21	1.07 (inactive)	5.76 µM
O=C(CCN1C(=O)/C(=C/c2ccccc2)SC1=S)NNC(=O)c1cccnc1	1.27 (inactive)	6.88 µM
Cc1cccc(-n2c(SCC(=O)Nc3ncc(Cl)cc3Cl)nc3ccccc32)c1	0.81 (inactive)	4.37 µM
Cc1ccc(NC(=O)CNC(=O)c2cccs2)cc1S(=O)(=O)Nc1ccc(Cl)cc1	1.11 (inactive)	5.97 µM
COc1ccc([N+](=O)[O-])cc1NC(=O)COC(=O)/C=C/c1ccco1	0.99 (inactive)	5.32 µM
Oc1c(C=C2N=c3ccccc3=N2)sc(=S)n1-c1ccc(F)cc1	0.63 (inactive)	3.39 µM
COc1ccccc1N1CCN(C(=O)COc2ccc(Cl)cc2)CC1	0.8 (inactive)	4.32 µM
Cn1cc(Br)c(C(=O)NNC(=O)c2ccc(Br)cc2)n1	0.98 (inactive)	5.26 µM
O=C1[C@@H]2[C@H](Cc3ccc(O)cc3)N[C@]3(C(=O)Nc4ccccc43)[C@@H]2C(=O)N1c1ccc(F)cc1	1.46 (inactive)	7.88 µM
COc1cccc(/C=N/NC(=O)C(=O)NCc2ccco2)c1O	0.65 (inactive)	3.54 µM
COc1ccc(N2CCN(c3oc(COc4ccc(Cl)cc4)nc3C#N)CC2)cc1	1.64	8.88 µM
N#Cc1nc(COc2ccccc2)oc1N1CCCCCC1	0.59 (inactive)	3.17 µM
O=C(CCc1ccccc1)Nc1nnc(-c2ccc3c(c2)CCCC3)o1	0.25 (inactive)	1.36 µM
CCCNC(=O)c1oc2ccc3c(c2c1C)C(=O)CC(C)(C)O3	0.84 (inactive)	4.55 µM
O=C(O)CCN1C(=O)CC(N2C(=O)/C(=C/c3ccc(Cl)cc3)SC2=S)C1=O (stereo not given)	1.3 (inactive)	7.04 µM
CCOC(=O)CN1C(=O)C(C)(C)Oc2ccc(C(=O)Nc3ccccc3OC)cc21	0.85 (inactive)	4.6 µM
COc1ccc(N2Cc3cccc(C(=O)NC(C)CCc4ccco4)c3C2=O)cc1 (stereo not given)	0.37 (inactive)	2.02 µM
Cc1ccc(-n2c(C)nnc2SCC(=O)Nc2ccccc2)cc1	1 (inactive)	5.41 µM
Cc1cc(C)nc(N/N=C/c2cccc3ccccc23)n1	1 (inactive)	5.39 µM
CCCC1S/C(=N/N=C/c2ccc(OC)cc2)N(Cc2ccccc2)C1=O (stereo not given)	1 (inactive)	5.39 µM
O=C(/C=C/c1ccc([N+](=O)[O-])cc1)N1CCN(c2ccccc2F)CC1	0.56 (inactive)	3.05 µM
